Assay results published in patent US20230090255A1, “MAGL INHIBITOR, PREPARATION METHOD THEREFOR AND USE THEREOF” (LUNAN PHARMACEUTICAL GROUP CORPORATION, priority 2019, published 2023).

What was measured:
[1] = system: mice writhing caused by acetic acid; experiment: Mice writhing caused by acetic acid; conditions: for Writhing times: 1 h before 0.7% acetic acid ip, within 20 min; for Latent time: time to first writhing; for Inhibition ratio: writhing inhibition
Procedure: Each compound was prepared into a suspension by 0.5% sodium carboxymethylcellulose respectively, and then set according to the dose, and each administration group was administered intragastrically; the model group was administered intragastrically an equal volume of 0.5% sodium carboxymethylcellulose.
Mice were intraperitoneally injected with acetic acid to cause a large area and more lasting painful stimuli in deep enterocoelia, causing mice to produce writhing responses. After being administered for 1 h, each dose group was intraperitoneally injected with 0.7% acetic acid-normal saline solution (0.1 ml/10 g).
The time (pain latent time) that the mice started to appear writhing after being intraperitoneally injected with acetic acid was recorded.
The writhing response times of each mouse within 20 min were recorded after injecting acetic acid to cause pain, and then, the writhing inhibition ratio of each administration group was calculated.
Writhing inhibition ratio = [(writhing times of the control group -writhing times of the administration group)/writhing times of the control group] × 100%
Experimental data is shown by x±s and subjected to variance analysis by SPSS 15.0 software.

[2] = system: mice pain response induced by hot plate; experiment: Mice pain response induced by hot plate; assay type: in vivo, ICR mice; conditions: for Pain threshold: hot plate 55°C
How it was run: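 Female ICR mice (20±2 g) dosed intragastrically for 7 consecutive days. Latency to hind-paw licking on a 55±0.5° C hot plate measured at 30, 60, 90 and 120 min after the last dose, with a 60 s cap. Mice with baseline latency <5 s or >30 s, or jumping, excluded.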

ulcerative colitis mice = experiment: Mice ulcerative colitis (DSS); assay type: in vivo, BALB/c mice; conditions: for Total times of hematochezia within the four periods / Colon length / IL-1 content: DSS mice; for Colon length: four periods; for IL-1 content: serum, ELISA
[3] = system: irritable bowel syndrome rats; experiment: Irritable bowel syndrome rats induced by early maternal separation; assay type: in vivo, SD rats; set-up: AWR scoring: scale not given here; conditions: for Colon 5-HT / Serum 5-HT / AWR scoring: IBS rats
[4] = system: mice with inflammatory pain; experiment: Pain threshold of mice with inflammatory pain (complete Freund's adjuvant); assay type: in vivo, SD mice; conditions: for Pain threshold: complete Freund's adjuvant paw model

O=C(Nc1cccc(Cl)c1)C1CCN(C(=O)c2cc3ccccc3[nH]2)CC1 [MAGLZ-II-18]
Writhing times ([1]; high dose 30 mg/kg ig): 15.8±15.3 | Latent time ([1]; high dose 30 mg/kg ig): 410.9 ± 186.5 s | Inhibition ratio ([1]; high dose 30 mg/kg ig): 59.8% | Writhing times ([1]; low dose 7.5 mg/kg ig): 25.0±13.5 | Latent time ([1]; low dose 7.5 mg/kg ig): 318.7 ± 120.2 s | Inhibition ratio ([1]; low dose 7.5 mg/kg ig): 36.4% | Writhing times ([1]; middle dose 15 mg/kg ig): 21.8±12.4 | Latent time ([1]; middle dose 15 mg/kg ig): 381.4 ± 127.1 s | Inhibition ratio ([1]; middle dose 15 mg/kg ig): 44.5% | pain thresholds of the thermal-stimulus mice, in words ([2]; compared with the model group): significantly extend | Pain threshold ([2]; high dose 30 mg/kg ig 7 d, 30 min after final administration): 26.73 ± 7.37 s | Pain threshold ([2]; high dose 30 mg/kg ig 7 d, 60 min): 27.22 ± 7.29 s | Pain threshold ([2]; high dose 30 mg/kg ig 7 d, 90 min): 27.86 ± 7.93 s | Pain threshold ([2]; high dose 30 mg/kg ig 7 d, 120 min): 27.62 ± 10.01 s | Pain threshold ([2]; low dose 7.5 mg/kg ig 7 d, 30 min after final administration): 26.33 ± 7.52 s | Pain threshold ([2]; low dose 7.5 mg/kg ig 7 d, 60 min): 26.74 ± 7.05 s | Pain threshold ([2]; low dose 7.5 mg/kg ig 7 d, 90 min): 27.16 ± 7.32 s | Pain threshold ([2]; low dose 7.5 mg/kg ig 7 d, 120 min): 26.64 ± 10.03 s | Pain threshold ([2]; middle dose 15 mg/kg ig 7 d, 30 min after final administration): 26.41 ± 7.53 s | Pain threshold ([2]; middle dose 15 mg/kg ig 7 d, 60 min): 27.09 ± 7.53 s | Pain threshold ([2]; middle dose 15 mg/kg ig 7 d, 90 min): 27.58 ± 7.71 s | Pain threshold ([2]; middle dose 15 mg/kg ig 7 d, 120 min): 27.38 ± 9.97 s | Total times of hematochezia within the four periods (ulcerative colitis mice; high dose 30 mg/kg ig): 32.80±4.37 | Colon length (ulcerative colitis mice; high dose 30 mg/kg ig): 6.73±0.63 cm | IL-1 content (ulcerative colitis mice; high dose 30 mg/kg ig): 46.98 ± 7.56 pg/mL | Total times of hematochezia within the four periods (ulcerative colitis mice; low dose 7.5 mg/kg ig): 32.80±4.64 | Colon length (ulcerative colitis mice; low dose 7.5 mg/kg ig): 6.44±0.64 cm | IL-1 content (ulcerative colitis mice; low dose 7.5 mg/kg ig): 46.15 ± 9.65 pg/mL | Total times of hematochezia within the four periods (ulcerative colitis mice; middle dose 15 mg/kg ig): 33.90±4.77 | Colon length (ulcerative colitis mice; middle dose 15 mg/kg ig): 6.37±0.39 cm | IL-1 content (ulcerative colitis mice; middle dose 15 mg/kg ig): 49.01 ± 5.65 pg/mL | IL-1 content, in words (ulcerative colitis mice; compared with the model group): decrease | colon length, in words (ulcerative colitis mice; compared with the model group): significantly increase | total times of hematochezia, in words (ulcerative colitis mice; compared with the model group): reduce | Colon 5-HT ([3]; high dose 30 mg/kg ig 20 d): 14.33±2.10^∗∗∗ µg/mg | Serum 5-HT ([3]; high dose 30 mg/kg ig 20 d): 30.86±5.28^∗∗∗ µg/ml | AWR scoring ([3]; high dose 30 mg/kg ig 20 d, 20 mm Hg): 1.87±0.36^∗∗ ∗ | AWR scoring ([3]; high dose 30 mg/kg ig 20 d, 40 mm Hg): 2.6±0.54^∗∗∗ | AWR scoring ([3]; high dose 30 mg/kg ig 20 d, 60 mm Hg): 3.09±0.34^∗∗∗ | Colon 5-HT ([3]; low dose 7.5 mg/kg ig 20 d): 21.91 ± 2.46 µg/mg | Serum 5-HT ([3]; low dose 7.5 mg/kg ig 20 d): 35.73 ± 3.32 µg/mL | AWR scoring ([3]; low dose 7.5 mg/kg ig 20 d, 20 mm Hg): 2.59±0.33 | AWR scoring ([3]; low dose 7.5 mg/kg ig 20 d, 40 mm Hg): 3.26±0.39 | AWR scoring ([3]; low dose 7.5 mg/kg ig 20 d, 60 mm Hg): 3.65±0.23^∗ | Colon 5-HT ([3]; middle dose 15 mg/kg ig 20 d): 14.89±3.19^∗∗ µg/mg | Serum 5-HT ([3]; middle dose 15 mg/kg ig 20 d): 29.12±7.05^∗∗ µg/ml | AWR scoring ([3]; middle dose 15 mg/kg ig 20 d, 20 mm Hg): 2.29±0.36^∗∗ | AWR scoring ([3]; middle dose 15 mg/kg ig 20 d, 40 mm Hg): 3.01±0.40^∗∗ | AWR scoring ([3]; middle dose 15 mg/kg ig 20 d, 60 mm Hg): 3.3±0.45^∗∗ | 5-HT level in colon and serum, in words ([3]; compared with the model group): significantly decrease | AWR scoring, in words ([3]; compared with the model group): significantly decrease | pain threshold of the mice with inflammatory pain, in words ([4]; compared with the model group): significantly extend | Pain threshold ([4]; high dose 30 mg/kg ig once per day, 0 d): 12.85±2.26^∗∗ s | Pain threshold ([4]; high dose 30 mg/kg ig once per day, 1 d): 6.95±0.85^∗∗ s | Pain threshold ([4]; high dose 30 mg/kg ig once per day, 3 d): 8.49±1.15^∗∗ s | Pain threshold ([4]; high dose 30 mg/kg ig once per day, 7 d): 9.62±0.93^∗∗ s | Pain threshold ([4]; low dose 7.5 mg/kg ig once per day, 0 d): 12.73±2.43^∗ s | Pain threshold ([4]; low dose 7.5 mg/kg ig once per day, 1 d): 6.39±0.91^∗ s | Pain threshold ([4]; low dose 7.5 mg/kg ig once per day, 3 d): 8.12±1.29^∗ s | Pain threshold ([4]; low dose 7.5 mg/kg ig once per day, 7 d): 9.16±1.17^∗ s | Pain threshold ([4]; middle dose 15 mg/kg ig once per day, 0 d): 12.86±2.25^∗∗ s | Pain threshold ([4]; middle dose 15 mg/kg ig once per day, 1 d): 6.62±0.69^∗∗ s | Pain threshold ([4]; middle dose 15 mg/kg ig once per day, 3 d): 8.24±0.73^∗∗ s | Pain threshold ([4]; middle dose 15 mg/kg ig once per day, 7 d): 9.51±1.15^∗∗ s
